According to PubChem BioAssay AID212 (DTP/NCI, 2004):
Where “and” joins values, the source holds several entries; their conditions need not be identical. Equal entries are not always repeated. Results filed as inconclusive are left out.

System: BDF1 mice, colon carcinoma 38 sc, T/C %
Assay: NCI In Vivo Anticancer Drug Screen. Data for tumor model Colon Carcinoma 38 (subcutaneous) in B6D2F1 (BDF1) mice
Summary of the method: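 Ratio of survival or tumor size, compound-treated animals relative to vehicle controls, in tumor-bearing mice.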

## CCCCCC[C@H]([C@H](C)O)n1cnc2c(N)ncnc21
endpoint: median survival time, dose: 22.0 mg/kg/injection, schedule: Q02DX006 (iv), vehicle: saline, higher = longer survival
  T/C: 113 % of control
endpoint: median survival time, dose: 36.0 mg/kg/injection, schedule: Q02DX006 (iv), vehicle: saline, higher = longer survival
  T/C: 111 % of control
endpoint: median survival time, dose: 58.0 mg/kg/injection, schedule: Q02DX006 (iv), vehicle: saline, higher = longer survival
  T/C: 92 % of control
endpoint: median survival time, dose: 93.0 mg/kg/injection, schedule: Q02DX006 (iv), vehicle: saline, higher = longer survival
  T/C: 115 % of control
endpoint: median tumor weight (est.), dose: 6.25 mg/kg/injection, schedule: Q07DX002 (ip), vehicle: Klucel (hydroxypropylcellulose) (HPC), higher = larger tumour
  T/C: 91 % of control
endpoint: median tumor weight (est.), dose: 12.5 mg/kg/injection, schedule: Q07DX002 (ip), vehicle: Klucel (hydroxypropylcellulose) (HPC), higher = larger tumour
  T/C: 194 % of control
endpoint: median tumor weight (est.), dose: 100.0 mg/kg/injection, schedule: Q07DX002 (ip), vehicle: Klucel (hydroxypropylcellulose) (HPC), higher = larger tumour
  T/C: 117 % of control and 103 % of control

## CN1N=C(N)c2cn(C3OC(COP(=O)(O)O)C(O)C3O)c3ncnc1c23 (stereo not given)
endpoint: median tumor weight (est.), dose: 6.25 mg/kg/injection, schedule: Q07DX002 (ip), vehicle: water, higher = larger tumour
  T/C: 84 % of control
endpoint: median tumor weight (est.), dose: 25.0 mg/kg/injection, schedule: Q07DX002 (ip), vehicle: water, higher = larger tumour
  T/C: 68 % of control and 91 % of control
endpoint: median tumor weight (est.), dose: 100.0 mg/kg/injection, schedule: Q07DX002 (ip), vehicle: water, higher = larger tumour
  T/C: 73 % of control

## O=S(=O)(O)O.[NH-]C1CCCCC1[NH-].[Pt+2] (stereo not given)
endpoint: median tumor weight (est.), dose: 0.31 mg/kg/injection, schedule: Q07DX002 (ip), vehicle: dextrose, higher = larger tumour
  T/C: 56 % of control
endpoint: median tumor weight (est.), dose: 0.62 mg/kg/injection, schedule: Q07DX002 (ip), vehicle: dextrose, higher = larger tumour
  T/C: 82 % of control
endpoint: median tumor weight (est.), dose: 0.63 mg/kg/injection, schedule: Q07DX002 (ip), vehicle: dextrose, higher = larger tumour
  T/C: 80 % of control
endpoint: median tumor weight (est.), dose: 0.63 mg/kg/injection, schedule: Q07DX003 (ip), vehicle: dextrose, higher = larger tumour
  T/C: 51 % of control
endpoint: median tumor weight (est.), dose: 1.25 mg/kg/injection, schedule: Q07DX002 (ip), vehicle: dextrose, higher = larger tumour
  T/C: 41 % of control
endpoint: median tumor weight (est.), dose: 1.25 mg/kg/injection, schedule: Q07DX003 (ip), vehicle: dextrose, higher = larger tumour
  T/C: 76 % of control
endpoint: median tumor weight (est.), dose: 2.5 mg/kg/injection, schedule: Q07DX002 (ip), vehicle: dextrose, higher = larger tumour
  T/C: 19 % of control and 36 % of control
endpoint: median tumor weight (est.), dose: 5.0 mg/kg/injection, schedule: Q07DX002 (ip), vehicle: dextrose, higher = larger tumour
  T/C: 21 % of control
endpoint: median tumor weight (est.), dose: 5.0 mg/kg/injection, schedule: Q07DX003 (ip), vehicle: dextrose, higher = larger tumour
  T/C: 29 % of control
endpoint: median tumor weight (est.), dose: 10.0 mg/kg/injection, schedule: Q07DX002 (ip), vehicle: dextrose, higher = larger tumour
  T/C: 9 % of control

## COc1ccc2c(c1)CCn1c(C)c(COC(=O)NC(C)C)c(COC(=O)NC(C)C)c1-2
endpoint: median tumor weight (est.), dose: 6.25 mg/kg/injection, schedule: Q07DX002 (ip), vehicle: distilled water + Tween-80, higher = larger tumour
  T/C: 76 % of control
endpoint: median tumor weight (est.), dose: 12.5 mg/kg/injection, schedule: Q07DX002 (ip), vehicle: distilled water + Tween-80, higher = larger tumour
  T/C: 102 % of control
endpoint: median tumor weight (est.), dose: 25.0 mg/kg/injection, schedule: Q07DX002 (ip), vehicle: distilled water + Tween-80, higher = larger tumour
  T/C: 97 % of control
endpoint: median tumor weight (est.), dose: 50.0 mg/kg/injection, schedule: Q07DX002 (ip), vehicle: distilled water + Tween-80, higher = larger tumour
  T/C: 65 % of control
endpoint: median tumor weight (est.), dose: 100.0 mg/kg/injection, schedule: Q07DX002 (ip), vehicle: distilled water + Tween-80, higher = larger tumour
  T/C: 48 % of control

## O=c1[nH]cc(F)c(=O)[nH]1
endpoint: median survival time, dose: 16.2 mg/kg/injection, schedule: Q04DX002 (ip), vehicle: saline, higher = longer survival
  T/C: 119 % of control
endpoint: median survival time, dose: 21.1 mg/kg/injection, schedule: Q01DX010 (ip), vehicle: saline, higher = longer survival
  T/C: 199 % of control
endpoint: median survival time, dose: 34.0 mg/kg/injection, schedule: Q01DX010 (ip), vehicle: saline, higher = longer survival
  T/C: 199 % of control
endpoint: median survival time, dose: 36.0 mg/kg/injection, schedule: Q04DX003 (ip), vehicle: saline, higher = longer survival
  T/C: 119 % of control
endpoint: median survival time, dose: 42.0 mg/kg/injection, schedule: Q04DX004 (ip), vehicle: saline, higher = longer survival
  T/C: 122 % of control
endpoint: median survival time, dose: 60.0 mg/kg/injection, schedule: Q04DX004 (ip), vehicle: alkali diluted with saline, higher = longer survival
  T/C: 197 % of control and 204 % of control
endpoint: median survival time, dose: 73.0 mg/kg/injection, schedule: Q07DX003 (iv), vehicle: saline, higher = longer survival
  T/C: 124 % of control
endpoint: median survival time, dose: 75.0 mg/kg/injection, schedule: Q04DX002 (ip), vehicle: saline, higher = longer survival
  T/C: 233 % of control
endpoint: median survival time, dose: 100.0 mg/kg/injection, schedule: Q04DX004 (ip), vehicle: alkali diluted with saline, higher = longer survival
  T/C: 72 % of control
endpoint: median survival time, dose: 167.0 mg/kg/injection, schedule: Q04DX004 (ip), vehicle: alkali diluted with saline, higher = longer survival
  T/C: 57 % of control
endpoint: median tumor weight (est.), dose: 21.6 mg/kg/injection, schedule: Q04DX004 (ip), vehicle: saline, higher = larger tumour
  T/C: 65 % of control
endpoint: median tumor weight (est.), dose: 36.0 mg/kg/injection, schedule: Q04DX004 (ip), vehicle: saline, higher = larger tumour
  T/C: 38 % of control

## COC1OC(CO)C(O)C(NC(=O)N(C)N=O)C1O (stereo not given)
endpoint: median tumor weight (est.), dose: 12.5 mg/kg/injection, schedule: Q07DX002 (ip), vehicle: saline, higher = larger tumour
  T/C: 113 % of control
endpoint: median tumor weight (est.), dose: 50.0 mg/kg/injection, schedule: Q07DX002 (ip), vehicle: saline, higher = larger tumour
  T/C: 95 % of control and 102 % of control
endpoint: median tumor weight (est.), dose: 800.0 mg/kg/injection, schedule: Q07DX002 (ip), vehicle: saline, higher = larger tumour
  T/C: 2 % of control and 9 % of control

## COc1c(O)c2c(c3cc(C(=O)N4CCc5c4c(O)c(OC)c4[nH]c(C(=O)N6CC7CC78C6=CC(=O)c6[nH]cc(C)c68)cc54)[nH]c13)CCN2C(N)=O (stereo not given)
endpoint: median tumor weight (est.), dose: 6.25 micrograms/kg/injection, schedule: Q07DX002 (ip), vehicle: DMSO, higher = larger tumour
  T/C: 122 % of control
endpoint: median tumor weight (est.), dose: 25.0 micrograms/kg/injection, schedule: Q07DX002 (ip), vehicle: DMSO, higher = larger tumour
  T/C: 109 % of control
endpoint: median tumor weight (est.), dose: 50.0 micrograms/kg/injection, schedule: Q07DX002 (ip), vehicle: DMSO, higher = larger tumour
  T/C: 89 % of control
endpoint: median tumor weight (est.), dose: 67.0 micrograms/kg/injection, schedule: Q07DX002 (ip), vehicle: other, higher = larger tumour
  T/C: 89 % of control
endpoint: median tumor weight (est.), dose: 100.0 micrograms/kg/injection, schedule: Q07DX002 (ip), vehicle: other, higher = larger tumour
  T/C: 37 % of control
